Measurements reported in PMC9227536, “Prediction of Pharmacokinetics of IDP-73152 in Humans Using Physiologically-Based Pharmacokinetics” (Pharmaceutics, 2022).

Experiments:
[1] = PK study in dogs (intravenous and oral); format: in vivo
Protocol: The in vivo experimental protocol was approved by the Institutional Animal Care and Use Committee of Research Laboratory at Ildong pharmaceutical Co., Ltd. (Ref. No.: IDL-PDF-001 and 09005-11004). Animals were acclimatized to the laboratory conditions for at least 1 week before the experiments and were kept in the standardized conditions (20–25 °C, 55 ± 5% humidity, and a 12 h light/dark cycle). The animals fasted overnight prior to drug administration, and food was resupplied 4 h post-dose.
Male beagle dogs (body weight 9.55–10.3 kg, Beijing Marshall Biotechnology, Beijing, China) received a single intravenous dose of 10 mg/kg IDP-73152 via the cephalic vein (i.e., the injection volume of 1 mL/kg, IDP-73152 in saline). When necessary, a single dose of IDP-73152 at 20 mg/kg was also orally administered to dogs in the form of hard gelatin capsules. Blood samples were collected from the jugular vein at 0.167, 0.33, 0.5, 1, 2, 4, and 8 h (for intravenous administration study), and 0.167, 0.33, 0.5, 1, 2, 4, 6, and 8 h (for oral administration study) after the administration. Plasma was separated/collected from the blood sample by centrifugation for 5 min at 10,000× g/4 °C and stored at −80 °C until the analysis.
When necessary for a model independent PK analysis, a standard moment analysis was carried out with WinNonlin software using either representative (for the study with mice) or individual (for the study with rats, dogs, and humans) concentration–time profile(s). For the calculation of PBPK models, Berkeley Madonna 8.3.18 (Albany, CA, USA) was used with the fourth-order Runge–Kutta method for numerical integration.

[2] = Unbound fraction in hepatocyte incubation, rat; format: in vitro ADME; conditions: hepatocytes (hepatocyte incubation mixture), rats hepatocyte incubation, read-out: fu,hep
Protocol: The unbound fractions of IDP-73152 in various matrices were measured according to the manufacturer’s instructions for the rapid equilibrium dialysis (RED) device (ThermoFisher Scientific, Waltham, MA, USA). Briefly, IDP-73152 was added to the plasma or the microsomal/hepatocyte incubation buffer from various species (i.e., mouse, rat, dog, and human for microsomal incubation; rat for hepatocyte incubation) to obtain final concentrations of the compound at 0.3, 1, and 3 μM. After the membrane insert was placed in the RED plate, the solution containing IDP-73152 was added (400 µL) to the sample chamber, and the dialysis buffer (600 μL) was added to the buffer chamber. The RED plate was sealed with parafilm and then incubated at 37 °C in the orbital shaker (Lab Companion, Daejeon, Korea) at 100 rpm for 5 h. After a 50 μL aliquot was aspirated from both the sample and buffer chambers, an equal volume of protein-free buffer or blank medium was replaced in the aspirated sample or buffer to render the matrices compositionally identical. The IDP-73152 concentration in the buffer/sample chambers (i.e., CBuffer Chamber and CSample Chamber) was determined by an assay. Thus, the fraction unbound was defined as:(2) % Fraction unbound=(CBuffer Chamber/CSample Chamber)×100%

[3] = PK study in rats (intravenous and oral); format: in vivo, Male Sprague Dawley rats; conditions: for Vd / clearance: iv, 10 mg/kg; for Vd: read-out: Vss; for clearance: read-out: CLp (converted); for Tmax: 20 mg/kg
Protocol: The in vivo experimental protocol was approved by the Institutional Animal Care and Use Committee of Research Laboratory at Ildong pharmaceutical Co., Ltd. (Ref. No.: IDL-PDF-001 and 09005-11004). Animals were acclimatized to the laboratory conditions for at least 1 week before the experiments and were kept in the standardized conditions (20–25 °C, 55 ± 5% humidity, and a 12 h light/dark cycle). The animals fasted overnight prior to drug administration, and food was resupplied 4 h post-dose. Male Sprague Dawley rats (Orient Bio Inc., Seongnam, Korea), weighing 194.7 g to 205.4 g, were used in this study. IDP-73152 was administered to rats at a single dose of 2.5, 5, or 10 mg/kg via tail vein injection (the injection volume fixed at 2 mL/kg in saline). […] Blood samples (100 μL) were collected from the jugular vein at 0.167, 0.33, 0.5, 1, 2, 4, and 8 h after the administration. Plasma was separated/collected by centrifugation of the blood samples for 5 min at 10,000× g/4 °C and stored at −80 °C until analysis. When necessary, the biliary and renal excretion of IDP-73152 were studied in bile duct-cannulated rats after the intravenous injection (5 mg/kg) to investigate its route(s) of excretion in rats. Bile and urine samples were collected up to 8 h (i.e., approximately 5 times of the terminal phase half-life) after the administration and the samples were stored at −80 °C until the analysis. The cumulative excretion of the bile and the urine to infinite time was determined by assuming that the excretion was practically completed by the last collection time. When necessary for a model independent PK analysis, a standard moment analysis was carried out with WinNonlin software using either representative (for the study with mice) or individual (for the study with rats, dogs, and humans) concentration–time profile(s). For the calculation of PBPK models, Berkeley Madonna 8.3.18 (Albany, CA, USA) was used with the fourth-order Runge–Kutta method for numerical integration.

[4] = male, beagle, dog, plasma, dogs, oral 20 mg/kg, hard gelatin capsules
[5] = male, Sprague Dawley, rat, plasma, intravenous, across doses of 2.5, 5, and 10 mg/kg

CC(C)(C)[C@H](NC(=O)[C@H](CC1CCCC1)CN(O)C=O)C(=O)N1CCC(NCc2cc(F)c(F)cc2F)CC1 [IDP-73152]
CLp ([1]; dogs, intravenous 10 mg/kg, 10 mg/kg): 11.1 ± 4.32 mL/min/kg
AUC(0-inf) ([1]; male, beagle, dog, plasma, iv, 10 mg/kg): 16600 ± 5900 ng·h/mL
clearance ([1]; male, beagle, dog, plasma, iv, 10 mg/kg, dogs, intravenous 10 mg/kg, read-out: CLp (converted)): 10.3 mL/min/kg
Vd ([1]; male, beagle, dog, plasma, dogs, intravenous 10 mg/kg, moment analysis, read-out: Vss): 1.15 ± 0.46 L/kg
half-life ([1]; male, beagle, dog, plasma, dogs, intravenous 10 mg/kg, read-out: t1/2 (converted)): 1.18 ± 0.14 h
bioavailability ([1]; male, beagle, dog, plasma, dogs, oral 20 mg/kg vs intravenous 10 mg/kg, read-out: F (bioavailability)): 95.5%
AUC(0-inf) [1, 4]: 31600 ± 5900 ng·h/mL
Cmax [1, 4]: 10500 ± 2000 ng/mL
Tmax [1, 4]: 0.777 ± 0.387 h
half-life ([1]; male, beagle, dog, plasma, dogs, oral 20 mg/kg, hard gelatin capsules, read-out: t1/2 (terminal phase half-life) (converted)): 1.81 ± 0.04 h
fraction unbound at 5 h [2]: 0.492 ± 0.068
AUC(0-inf) ([3]; male, Sprague Dawley, rat, plasma, intravenous 2.5 mg/kg, read-out: Observed AUCinf): 1320 ± 130 ng·h/mL
AUC(0-inf) ([3]; male, Sprague Dawley, rat, plasma, intravenous 5 mg/kg, read-out: Observed AUCinf): 3270 ± 1820 ng·h/mL
AUC(0-inf) ([3]; male, Sprague Dawley, rat, plasma, intravenous 10 mg/kg, read-out: AUCinf): 5030 ± 380 ng·h/mL
half-life ([3]; male, Sprague Dawley, rat, plasma, intravenous 10 mg/kg, read-out: t1/2 (converted)): 1.43 ± 0.11 h
Vd ([3]; male, Sprague Dawley, rat, plasma, intravenous 10 mg/kg, moment analysis): 2.54 ± 0.26 L/kg
clearance ([3]; male, Sprague Dawley, rat, plasma, intravenous 10 mg/kg): ~33.3 mL/min/kg
clearance [3, 5]: 30.8 to 33.3 mL/min/kg
Vd [3, 5]: 2.45 to 2.78 L/kg
Cmax ([3]; male, Sprague Dawley, rat, plasma, oral 20 mg/kg): 1650 ± 440 ng/mL
bioavailability ([3]; male, Sprague Dawley, rat, plasma, oral 20 mg/kg vs intravenous 10 mg/kg, read-out: F (bioavailability)): 55.3%
AUC(0-inf) ([3]; male, Sprague Dawley, rat, plasma, oral 20 mg/kg, read-out: AUCinf): 5570 ± 1590 ng·h/mL
half-life ([3]; male, Sprague Dawley, rat, plasma, oral 20 mg/kg, read-out: t1/2 (terminal phase half-life) (converted)): 2.97 ± 1.4 h
Tmax ([3]; male, Sprague Dawley, rat, plasma, po, oral 20 mg/kg, read-out: Tmax): 0.667 h
Tmax ([3]; oral 20 mg/kg): 0.638 ± 0.29 h
